pIC50: −log10 of the molar value. Counter-ions that a name gives are not always drawn.
Legend:
human factor XIa = biological target: T1, human factor XIa (Homo sapiens, UniProt P03951); test: Measurement of FXIa inhibition (fluorogenic peptide substrate Boc-Glu(OBzl)-Ala-Arg-AMC); format: biochemical; details: factor XIa from Kordia, 15 min preincubation, 30 min at 22° C., fluorescence
T1 construct: purchased Kordia
Summary of the method: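 Released AMC fluorescence (360/460 nm) read after 30 min at 22 °C. The reaction was started with Boc-Glu(OBzl)-Ala-Arg-AMC (10 μM stock) after a 15 min preincubation of the enzyme (0.45 nM stock) with compound (final 50 μM to 0.00013 μM).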

human and animal plasma = test: Determination of anticoagulatory activity: activated partial thromboplastin time (aPTT) in plasma; details: concentration of test substance which brings about a 1.5-fold extension of the aPTT; plasma species not given
Summary of the method: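 Citrated plasma (1:9, 0.11 M citrate; 4000 g, 15 min) from human or animal blood incubated with test compound and cephalin/kaolin PTT reagent for 3 min at 37° C.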

T1 sequence (P03951 388-625 limits assumed): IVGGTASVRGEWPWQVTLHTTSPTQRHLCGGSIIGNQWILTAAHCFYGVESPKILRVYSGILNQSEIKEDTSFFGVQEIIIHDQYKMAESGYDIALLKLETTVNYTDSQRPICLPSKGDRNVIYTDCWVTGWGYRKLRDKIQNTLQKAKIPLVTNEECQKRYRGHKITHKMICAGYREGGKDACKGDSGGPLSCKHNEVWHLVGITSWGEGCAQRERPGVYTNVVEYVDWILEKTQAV
T1 sequence (P03951 19-387 partner limits assumed): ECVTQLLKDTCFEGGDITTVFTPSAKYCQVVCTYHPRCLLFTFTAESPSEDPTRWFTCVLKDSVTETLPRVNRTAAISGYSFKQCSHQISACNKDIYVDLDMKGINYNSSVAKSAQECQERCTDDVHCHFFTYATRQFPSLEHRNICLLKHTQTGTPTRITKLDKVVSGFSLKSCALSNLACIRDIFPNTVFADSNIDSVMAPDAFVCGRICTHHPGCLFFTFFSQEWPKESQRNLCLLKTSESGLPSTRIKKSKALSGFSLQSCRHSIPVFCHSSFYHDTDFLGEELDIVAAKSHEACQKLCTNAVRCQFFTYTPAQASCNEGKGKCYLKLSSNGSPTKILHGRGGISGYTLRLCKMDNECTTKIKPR

| SMILES | pIC50 (human factor XIa) | aPTT (human and animal plasma) |
| --- | --- | --- |
| Cc1nc2ccc(NC(=O)[C@H](Cc3ccc(-c4ccc(C(=O)NC5CCNCC5)cc4C)cc3)NC(=O)[C@H]3CC[C@H](CN)CC3)cc2[nH]1 [Example 50, 4′-{(2S)-2-({[trans-4-(Aminomethyl)cyclohexyl]carbonyl}amino)-3-[(2-methyl-1H-benzimidazol-6-yl)amino]-3-oxopropyl}-2-methyl-N-(piperidin-4-yl)biphenyl-4-carboxamide hydrochloride] | 8.08 | 0.16 µmol/L |
| Cc1cc(C(=O)NC2CCN(CC(F)(F)F)CC2)ccc1-c1ccc(C[C@H](NC(=O)[C@H]2CC[C@H](CN)CC2)C(=O)Nc2ccc(-c3nn[nH]n3)cc2)cc1 [Example 46, 4′-[(2S)-2-({[trans-4-(Aminomethyl)cyclohexyl]carbonyl}amino)-3-oxo-3-{[4-(2H-tetrazol-5-yl)phenyl]amino}propyl]-2-methyl-N-[1-(2,2,2-trifluoroethyl)piperidin-4-yl]biphenyl-4-carboxamide hydrochloride] | 8.44 | 0.22 µmol/L |
| Cc1cc(C(=O)N[C@@H]2CCCNC2=O)ccc1-c1ccc(C[C@H](NC(=O)[C@H]2CC[C@H](CN)CC2)C(=O)Nc2ccc(-c3nnc(C(F)(F)C(F)(F)C(=O)O)[nH]3)cc2)cc1 [Example 166, 3-[5-(4-{[(2S)-2-({[trans-4-(Aminomethyl)cyclohexyl]carbonyl}amino)-3-(2′-methyl-4′-{[(3R)-2-oxopiperidin-3-yl]carbamoyl}biphenyl-4-yl)propanoyl]amino}phenyl)-4H-1,2,4-triazol-3-yl]-2,2,3,3-tetrafluoropropanoic acid hydrochloride] | 9.10 | 0.09 µmol/L |
| Cc1cc(C(=O)N2CCNCC2)ccc1-c1ccc(C[C@H](NC(=O)[C@H]2CC[C@H](CN)CC2)C(=O)Nc2ccc(-c3nn[nH]n3)cc2)cc1 [Example 16, trans-4-(Aminomethyl)-N-[(2S)-3-[2′-methyl-4′-(piperazin-1-ylcarbonyl)biphenyl-4-yl]-1-oxo-1-{[4-(2H-tetrazol-5-yl)phenyl]amino}propan-2-yl]cyclohexanecarboxamide hydrochloride] | 8.41 | 0.23 µmol/L |
| CCN(CC)C1CCC(NC(=O)c2ccc(-c3ccc(C[C@H](NC(=O)[C@H]4CC[C@H](CN)CC4)C(=O)Nc4ccc5c(Cl)n[nH]c5c4)cc3)c(C)c2)CC1 (stereo partly drawn) [Example 94, 4′-{(2S)-2-({[trans-4-(Aminomethyl)cyclohexyl]carbonyl}amino)-3-[(3-chloro-1H-indazol-6-yl)amino]-3-oxopropyl}-N-[4-(diethylamino)cyclohexyl]-2-methylbiphenyl-4-carboxamide hydrochloride] | 8.04 | 0.23 µmol/L |
| NC[C@H]1CC[C@H](C(=O)N[C@@H](Cc2ccc(-c3ccc(C(=O)N4CCNCC4)cc3)cc2)C(=O)Nc2ccc(-c3nn[nH]n3)cc2)CC1 [Example 47, trans-4-(Aminomethyl)-N-[(2S)-1-oxo-3-[4′-(piperazin-1-ylcarbonyl)biphenyl-4-yl]-1-{[4-(2H-tetrazol-5-yl)phenyl]amino}propan-2-yl]cyclohexanecarboxamide trifluoroacetate] | 7.80 | 0.51 µmol/L |
| Cc1cc(C(=O)NCCO)ccc1-c1ccc(C[C@H](NC(=O)[C@H]2CC[C@H](CN)CC2)C(=O)Nc2ccc(-c3nn[nH]n3)cc2)cc1 [Example 18, 4′-[(2S)-2-({[trans-4-(Aminomethyl)cyclohexyl]carbonyl}amino)-3-oxo-3-{[4-(2H-tetrazol-5-yl)phenyl]amino}propyl]-N-(2-hydroxyethyl)-2-methylbiphenyl-4-carboxamide hydrochloride] | 8.43 | 0.16 µmol/L |
| CCN(CC)CCNC(=O)c1ccc(-c2ccc(C[C@H](NC(=O)[C@H]3CC[C@H](CN)CC3)C(=O)Nc3ccc4cn[nH]c4c3)cc2)c(C)c1 [Example 6, 4′-[(2S)-2-({[trans-4-(Aminomethyl)cyclohexyl]carbonyl}amino)-3-(1H-indazol-6-ylamino)-3-oxopropyl]-N-[2-(diethylamino)ethyl]-2-methylbiphenyl-4-carboxamide hydrochloride] | 7.77 | 0.21 µmol/L |
| Cc1cc(C(=O)NCCN)ccc1-c1ccc(C[C@H](NC(=O)[C@H]2CC[C@H](CN)CC2)C(=O)Nc2ccc(-c3nn[nH]n3)cc2)cc1 [Example 15, N-(2-Aminoethyl)-4′-[(2S)-2-({[trans-4-(aminomethyl)cyclohexyl]carbonyl}amino)-3-oxo-3-{[4-(2H-tetrazol-5-yl)phenyl]amino}propyl]-2-methylbiphenyl-4-carboxamide hydrochloride] | 8.54 | 0.09 µmol/L |
| Cc1cc(C(=O)NC2CCCNC2=O)ccc1-c1ccc(C[C@H](NC(=O)[C@H]2CC[C@H](CN)CC2)C(=O)Nc2ccc(-c3nc(C(F)(F)C(F)(F)C(F)(F)F)n[nH]3)cc2)cc1 (stereo partly drawn) [Example 88, 4′-[(2S)-2-({[trans-4-(Aminomethyl)cyclohexyl]carbonyl}amino)-3-({4-[3-(heptafluoropropyl)-1H-1,2,4-triazol-5-yl]phenyl}amino)-3-oxopropyl]-2-methyl-N-(2-oxopiperidin-3-yl)biphenyl-4-carboxamide hydrochloride] | 8.68 | 0.31 µmol/L |
| Cc1cc(C(=O)NC2CCNCC2)ccc1-c1ccc(C[C@H](NC(=O)[C@H]2CC[C@H](CN)CC2)C(=O)Nc2ccc3nc(C(F)F)[nH]c3c2)cc1 [Example 86, 4′-[(2S)-2-({[trans-4-(Aminomethyl)cyclohexyl]carbonyl}amino)-3-{[2-(difluoromethyl)-1H-benzimidazol-6-yl]amino}-3-oxopropyl]-2-methyl-N-(piperidin-4-yl)biphenyl-4-carboxamide hydrochloride] | 7.89 | 0.14 µmol/L |
| NC[C@H]1CC[C@H](C(=O)N[C@@H](Cc2ccc(-c3ccc(C(=O)NC4CCNCC4)cc3)cc2)C(=O)Nc2ccc(-c3nn[nH]n3)cc2)CC1 [Example 37, 4′-[(2S)-2-({[trans-4-(Aminomethyl)cyclohexyl]carbonyl}amino)-3-oxo-3-{[4-(2H-tetrazol-5-yl)phenyl]amino}propyl]-N-(piperidin-4-yl)biphenyl-4-carboxamide hydrochloride] | 8.07 | 0.12 µmol/L |
| CC1CC(NC(=O)c2ccc(-c3ccc(C[C@H](NC(=O)[C@H]4CC[C@H](CN)CC4)C(=O)Nc4ccc(-c5nn[nH]n5)cc4)cc3)c(Cl)c2)CCN1 (stereo partly drawn) [Example 30, 4′-[(2S)-2-({[trans-4-(Aminomethyl)cyclohexyl]carbonyl}amino)-3-oxo-3-{[4-(2H-tetrazol-5-yl)phenyl]amino}propyl]-2-chloro-N-(2-methylpiperidin-4-yl)biphenyl-4-carboxamide hydrochloride] | 8.49 | 0.12 µmol/L |
| Cc1cc(C(=O)NC2CNCC(F)(F)C2)ccc1-c1ccc(C[C@H](NC(=O)[C@H]2CC[C@H](CN)CC2)C(=O)Nc2ccc(-c3nn[nH]n3)c(F)c2)cc1 (stereo partly drawn) [Example 90, 4′-[(2S)-2-({[trans-4-(Aminomethyl)cyclohexyl]carbonyl}amino)-3-{[3-fluoro-4-(2H-tetrazol-5-yl)phenyl]amino}-3-oxopropyl]-N-(5,5-difluoropiperidin-3-yl)-2-methylbiphenyl-4-carboxamide hydrochloride] | 8.80 | 0.06 µmol/L |
| NC[C@H]1CC[C@H](C(=O)N[C@@H](Cc2ccc(-c3ccc(C(=O)NC4CC4)cc3)cc2)C(=O)Nc2ccc(-c3nnn[nH]3)cc2)CC1 [Example 62, 4′-[(2S)-2-({[trans-4-(Aminomethyl)cyclohexyl]carbonyl}amino)-3-oxo-3-{[4-(1H-tetrazol-5-yl)phenyl]amino}propyl]-N-cyclopropylbiphenyl-4-carboxamide hydrochloride] | 8.54 | 0.53 µmol/L |
| Cc1cc(C(=O)NC2CCNC(C)C2)ccc1-c1ccc(C[C@H](NC(=O)[C@H]2CC[C@H](CN)CC2)C(=O)Nc2ccc(-c3nn[nH]n3)cc2)cc1 (stereo partly drawn) [Example 32, 4′-[(2S)-2-({[trans-4-(Aminomethyl)cyclohexyl]carbonyl}amino)-3-oxo-3-{[4-(2H-tetrazol-5-yl)phenyl]amino}propyl]-2-methyl-N-(2-methylpiperidin-4-yl)biphenyl-4-carboxamide hydrochloride] | 8.47 | 0.09 µmol/L |
| Cc1cc(C(=O)N[C@H]2CCNC2)ccc1-c1ccc(C[C@H](NC(=O)[C@H]2CC[C@H](CN)CC2)C(=O)Nc2ccc(-c3nn[nH]n3)cc2)cc1 [Example 9, 4′-[(2S)-2-({[trans-4-(Aminomethyl)cyclohexyl]carbonyl}amino)-3-oxo-3-{[4-(2H-tetrazol-5-yl)phenyl]amino}propyl]-2-methyl-N-[(3S)-pyrrolidin-3-yl]biphenyl-4-carboxamide hydrochloride] | 8.77 | 0.09 µmol/L |
| Cc1cc(C(=O)N(C)C2CCN(C)CC2)ccc1-c1ccc(C[C@H](NC(=O)[C@H]2CC[C@H](CN)CC2)C(=O)Nc2ccc(-c3nnc(C(F)(F)C(F)(F)C(=O)O)[nH]3)cc2)cc1 [Example 113, 3-[5-(4-{[(2S)-2-({[trans-4-(Aminomethyl)cyclohexyl]carbonyl}amino)-3-{2′-methyl-4′-[methyl(1-methylpiperidin-4-yl)carbamoyl]biphenyl-4-yl}propanoyl]amino}phenyl)-4H-1,2,4-triazol-3-yl]-2,2,3,3-tetrafluoropropanoic acid hydrochloride] | 8.31 | 0.07 µmol/L |

Reference: patent US20160272617A1, “SUBSTITUTED PHENYLALANINE DERIVATIVES” (BAYER PHARMA AKTIENGESELLSCHAFT, priority 2013, published 2016)
